Experimental data: patent EP0402259A1, “Anthracyclines, process for their preparation and medicaments containing them” (LABORATOIRES HOECHST S.A., priority 1989, dated 1990)
In brackets after ≈: the same amount, converted by molar mass.

Columns and labels:
L1210 = assay: In vivo L1210 leukemia, survival time (T/C); design: species or system souris BDF1
Method: Un liquide d'ascite est prélevé dans des conditions aseptiques chez des souris DBA2 (femelle, 18 -20 g) le septième jours après l'implantation.
L'ascite est lavée trois fois avec du PBS, comptée et finalement diluée dans du PBS, de manière à obtenir 10^6 cellules/0,2 ml.
10^6 cellules dans 0,2 ml de PBS sont injectées dans le peritoine de souris DBA2 pour la propagation de la lignée cellulaire.
10^6 cellules dans 0,2 ml de PBS sont injectés intrapéritonéalement à des souris BDF1 (femelle 18 -20 g), 6 animauxigroupe sont utilisés pour chaque concentration de substance et pour le contrôle.
• a) les animaux sont pesés le premier jour et le cinquième jour après l'administration du médicament.
A partir du temps de survie moyen des groupes traités (MSTT) et des groupes contrôle (MSTc), l'effet antitumoral (T/C) est évalué en fonction de la formule suivante : [formula]

LXF = assay: Xenograft (subrenal capsule assay), LXF lung tumour; type: in vivo; settings: for Xénogreffes LXF: grades not defined
HT29 = assay: Xenograft (subrenal capsule assay), HT29 colon tumour; type: in vivo
cellules tumorales HT29 = assay: Proliferation test (MTT reduction), HT29; type: cell-based; settings: HT 29, 72 h incubation; for IC50: Homo sapiens, HT-29, 72 h, read-out: CI50 TEST AU MTT HT 29
Method: (§1) Les témoins consistent en cellules tumorales exposées à un milieu de culture. Quatre puits sont préparés pour chaque concentration en anthracycline et pour le témoin. Après 65 heures. 50 µl de MTT (2,5 mg/ml dans du PBS) sont ajoutés.
(§2) Le MTT sera réduit en présence de cellules vivantes en un colorant formazan rouge insoluble. Après 7 à 24 heures d'incubation supplémentaire (dépendant des cellules utilisées), le surnageant est enlevé. Le colorant formazan est solubilisé par l'addition de 100 ul de DMSO dans chaque puits, suivie d'une agitation douce.
(§3) L'extinction est mesurée pour chaque puits, à 492 nm (photomètre Multiscan 340 CC Fa. Flow).
(§4) Les résultats sont exprimés comme le rapport de l'extinction après incubation avec les anthracyclines sur l'extinction obtenue avec les témoins.

A549 = assay: Xenograft (subrenal capsule assay), A549; type: in vivo
cellules tumorales A549 = assay: Proliferation test (MTT reduction), A549; type: cell-based; settings: A 549, 72 h incubation; for IC50: Homo sapiens, A549, 72 h, read-out: CI50 TEST AU MTT A 549
Method: as §1, §2, §3, §4

cellules tumorales L1210 = assay: Proliferation test (MTT reduction), L1210; type: cell-based; settings: L1210, 72 h incubation; for IC50: Mus musculus, L1210, 72 h, read-out: CI50 TEST AU MTT L1210
Method: as §1, §2, §3, §4

[1] = L1210 i.p. in BDF1 mice, schedule 3 i.v.

| SMILES | dose optimale (L1210; [1]) | Xénogreffes LXF (LXF) | CI50 TEST AU MTT HT 29 (cellules tumorales HT29) | CI50 TEST AU MTT A 549 (cellules tumorales A549) | CI50 TEST AU MTT L1210 (cellules tumorales L1210) | IC50 (cellules tumorales HT29) [µg/mL] | IC50 (cellules tumorales A549) [µg/mL] | IC50 (cellules tumorales L1210) [µg/mL] | other results |
| --- | --- | --- | --- | --- | --- | --- | --- | --- | --- |
| C[C@@H]1O[C@@H](O[C@H]2C[C@](O)(CO)Cc3c(O)c4c(c(O)c32)C(=O)c2ccccc2C4=O)C[C@H](O)[C@@H]1N [Composé 13, chlorhydratede (S)-cis-1-O-(4-amino-2,4,6-trideoxy-α-L-lyxo-hexopyranosyl)-1,2.3.4,6.11-hexahydro-1,3,5,12-tétrahydroxy-3-hydroxyméthyl-6,11-naphtacène dione] | 3,1 mg/kg/Inj. | + + | 0,01 µg/ml | 0,009 µg/ml | 0,009 µg/ml | – | – | – | T/C % (L1210; L1210 i.p. in BDF1 mice, schedule 3 i.v., at optimal dose, T/C above 125 % = significant antitumour effect): 133%; activité antitumorale (L1210; in words, at a dose about three times lower than that of doxorubicine): activité antitumorale non négligeable; activité sur tumeur du poumon (LXF) (LXF; in words): actif; activité sur tumeur du colon (HT29) (HT29; in words): à un moindre degré; activité sur la lignée cellulaire A549 (A549; in words): à un moindre degré |
| C[C@@H]1O[C@@H](O[C@H]2C[C@](O)(CO)Cc3c(O)c4c(c(O)c32)C(=O)c2ccccc2C4=O)C[C@H](O)[C@@H]1N=[N+]=[N-] [compound 6] | – | – | – | – | – | 0.46 (≈ 0.899 µM) | 0.24 (≈ 0.469 µM) | 0.13 (≈ 0.254 µM) | – |
| C[C@@H]1O[C@@H](O[C@H]2C[C@](O)(CO)Cc3c(O)c4c(c(O)c32)C(=O)c2ccccc2C4=O)C[C@H](O)[C@@H]1NC(=O)C(F)(F)F [compound 11] | – | – | – | – | – | 0.026 (≈ 0.0447 µM) | 0.011 (≈ 0.0189 µM) | 0.015 (≈ 0.0258 µM) | – |
| C[C@@H]1O[C@@H](O[C@H]2C[C@](O)(CO)Cc3c(O)c4c(c(O)c32)C(=O)c2ccccc2C4=O)C[C@H](O)[C@@H]1N [compound 12, (S)-cis-1-O-{4 amino-2,4,6-trideoxy-α-L-lyxo-hexopyranosyl)-1,2,3,4,6,11-hexahydro-1,3,5,12-tétrahydroxy-3-hydroxyméthyl-6,11-naphtacène dione] | – | – | 0,03 µg/ml | 0,24 µg/ml | 0,021 µg/ml | – | – | – | – |
| C[C@@H]1O[C@@H](O[C@H]2C[C@](O)(CO)Cc3c(O)c4c(c(O)c32)C(=O)c2ccccc2C4=O)C[C@H](O)[C@@H]1N1CCOCC1 [compound 14, (S)-cis-1-O-{4-morpholino-2,4,6-tridésoxy-α-L-lyxo-hexopyranosyl)-1,2,3,4,6,11-hexahydro-1,3,5,12-tétrahydroxy-3-hydroxyméthyl-6,11-naphtacène dione] | – | – | – | – | – | 0.13 (≈ 0.234 µM) | 0.054 (≈ 0.0972 µM) | 0.15 (≈ 0.27 µM) | – |
| COc1cccc2c1C(=O)c1c(O)c3c(c(O)c1C2=O)C[C@@](O)(C(=O)CO)C[C@@H]3O[C@H]1C[C@H](N)[C@H](O)[C@H](C)O1 [doxorubicine, reference compound] | 8,1 mg/kg/Inj. | + + + | – | – | – | – | – | – | Xénogreffes HT29 (HT29; grades not defined): + +; Xénogreffes A549 (A549; grades not defined): + + |
